The values below are quoted from earlier work in patent publication US12419869B2, “Methods of treating multiple sclerosis” (Vanda Pharmaceuticals Inc., priority 2021, dated 2025).

Molecules are shown by their SMILES.

The test system of this data set is adult subjects with relapsing MS. The settings on record: comparison values; cited from earlier work.

Take `CCCCCCCCc1ccc(CCC(N)(CO)CO)cc1` [Fingolimod]: the “ECG HR effect: time of nadir post-dose (other S1P modulators)” value was around 6 h.

As for `CCc1cc(/C(C)=N/OCc2ccc(C3CCCCC3)c(C(F)(F)F)c2)ccc1CN1CC(C(=O)O)C1` [Siponimod], the “ECG HR effect: time of nadir post-dose (other S1P modulators)” value is 3 to 4 h.
